These results are taken from article PMC8434415, “Chromone Derivatives with α-Glucosidase Inhibitory Activity from the Marine Fungus Penicillium thomii Maire” (Molecules, 2021).

One data set deals with α-glucosidase. Also noted: method as in PMID 25044593. The following applies: cited from earlier work.
In data set [1] the target is T1, α-glucosidase from Saccharomyes cerevisiae (Saccharomyces cerevisiae, UniProt P53341).
T1 construct: purchased Sigma-Aldrich (St. Louis, MO, USA)
Briefly: α-glucosidase inhibitory assay (PNPG substrate). Format: biochemical. The following applies: for inhibition at 667 µM: compound at 667 μM; for IC50: tested between 0.2 and 2 mM, three replicates. On the procedure: The α-glucosidase inhibitory effect was performed as follows. The 0.2 U of α-glucosidase from Saccharomyes cerevisiae, purchased from Sigma-Aldrich (St. Louis, MO, USA), was diluted to 0.067 M phosphate buffer consisting of Na2HPO4·12H2O and KH2PO4 (pH 6.8). The assay was conducted in a 60 μL reaction system containing 20 μL of diluted enzyme solution and 20 μL of DMSO or sample (dissolved in DMSO). After 10 min of incubation in the 96-well plates at 37 °C, 20 μL of 4 mM PNPG (4-nitrophenyl-α-D-glucopyranoside, Aladdin, Shanghai, China) was added as substrate to start the enzymatic reaction. The plate was incubated for an additional 20 min at 37 °C, and the reaction was quenched by adding 60 μL of 0.2 M Na2CO3. The final concentrations of tested compounds were between 0.2 and 2 mM. The optical density (OD) was measured at an absorbance wavelength of 405 nm using a Microplate Reader (Tecan, Switzerland). […] Percent inhibition was calculated by the following equation: Inhibition (%) = ((Absorbance of control − Absorbance of test)/Absorbance of control)); IC50 concentrations are calculated using concentration vs. percent inhibition values.

Data set [2] is described as follows: DPPH radical scavenging (antioxidant) test. The following applies: for Antioxidant % Inhibition (1000 μM): compound at 1000 μM. On the procedure: The DPPH scavenging was assayed following the procedures in our recent published paper. The DPPH radical scavenging test was performed in 96-well microplates. Then, 20 μL of samples at a concentration of 10 mM in MeOH were added to 180 μL (150 μmol/L) DPPH solution. After 30 min of light avoidance, absorbance at 517 nm using a Microplate Reader (Tecan, Switzerland) was measured and the percentage of activity was calculated. All assays were performed in three replicates, and vitamin C was used as a positive control. Percent inhibition was calculated by the following equation: Inhibition (%) = ((Absorbance of control − Absorbance of test)/Absorbance of control)); IC50 concentrations are calculated using concentration vs. percent inhibition values.
(The DPPH test is a chemical assay of radical scavenging.)

The subject of data set [3] is several carcinoma cell lines. The following applies: cited from earlier work.
The next data set concerns the target liver X receptor α. Also noted: method as in PMID 33932772. The following applies: read-out: dissociation equilibrium constant; cited from earlier work.

T1 sequence (P53341 whole entry): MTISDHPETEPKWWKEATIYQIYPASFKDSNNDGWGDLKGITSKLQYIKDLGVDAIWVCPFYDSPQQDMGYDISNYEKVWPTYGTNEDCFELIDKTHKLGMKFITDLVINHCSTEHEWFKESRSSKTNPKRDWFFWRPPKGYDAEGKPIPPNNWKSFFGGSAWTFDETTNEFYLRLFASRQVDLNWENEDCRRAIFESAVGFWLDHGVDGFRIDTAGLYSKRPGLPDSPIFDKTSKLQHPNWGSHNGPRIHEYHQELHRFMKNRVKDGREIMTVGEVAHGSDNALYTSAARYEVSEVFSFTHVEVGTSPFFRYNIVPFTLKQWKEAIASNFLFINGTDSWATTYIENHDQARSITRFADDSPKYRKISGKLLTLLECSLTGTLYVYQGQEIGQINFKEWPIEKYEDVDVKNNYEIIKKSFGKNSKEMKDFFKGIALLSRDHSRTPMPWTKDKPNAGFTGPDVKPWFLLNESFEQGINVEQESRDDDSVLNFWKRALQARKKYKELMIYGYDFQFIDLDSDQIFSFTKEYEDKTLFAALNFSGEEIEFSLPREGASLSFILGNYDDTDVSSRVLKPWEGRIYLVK

As for `COc1cc(OC)c2c(=O)cc(CCCC(=O)O)oc2c1` [4-(5,7-dimethoxy-4-oxo-4H-chromen-2-yl)butanoic acid], the “inhibitory activity on α-glucosidase (in words)” value with α-glucosidase was “moderate inhibitory activity”.

As to `C[C@H]1O[C@H](O[C@H]2[C@H](O)[C@@H](O)[C@@H](O[C@H]3[C@H](O)[C@@H](O)C(O)O[C@@H]3CO)O[C@@H]2CO)[C@H](O)[C@@H](O)[C@@H]1N[C@H]1C=C(CO)[C@@H](O)[C@H](O)[C@H]1O` (some centres unmarked) [Acarbose, acarbose, reference compound], in data set [1], the inhibition at 667 µM amounted to 27.7%. `COc1cc(O)c2c(=O)cc(CCC[C@@H]3CCC(=O)O3)oc2c1` [Compound 1, Penithochromone M]: the “Antioxidant % Inhibition (1000 μM)” value in data set [2] was 7.24%. The inhibition at 667 µM in data set [1] is -3.43%. Turning to `O=C(O)CCCCC(O)Cc1cc(=O)c2c(O)cc(O)cc2o1` (centres unmarked) [Compound 2, Penithochromone N], in data set [2], inhibition was half-maximal at 1970 ± 156 µM (IC50) and the “Antioxidant % Inhibition (1000 μM)” value stood at 35.7%. In addition, the inhibition at 667 µM in data set [1] was determined as 15.1%.

For `COC(=O)CCCCC(O)Cc1cc(=O)c2c(O)cc(OC)cc2o1` (centres unmarked) [Compound 3, Penithochromone O], the “Antioxidant % Inhibition (1000 μM)” value in data set [2] was 20.4%. Moreover, the inhibition at 667 µM in data set [1] stood at 23.8%. Taken in the same sequence, the figures for `COc1cc(OC)c2c(=O)cc(CCCCC(O)CC(=O)O)oc2c1` (centres unmarked) [Compound 4, Penithochromone P] were 12.2% and -9.72%. Regarding `COC(=O)CC(O)CCCCc1cc(=O)c2c(OC)cc(OC)cc2o1` (centres unmarked) [Compound 5, Penithochromone Q], the “Antioxidant % Inhibition (1000 μM)” value in data set [2] was determined as 11.2%. Further, in data set [1], the inhibition at 667 µM came to 1.41%.

With `O=C(O)CC(O)CCCCc1cc(=O)c2c(O)cc(O)cc2o1` (centres unmarked) [Compound 6, Penithochromone R], in data set [2], the “Antioxidant % Inhibition (1000 μM)” value is 33.8%. Further, in data set [1], the inhibition at 667 µM amounted to 27.3% and the IC50 was determined as 842 ± 11 µM. Taken in the same sequence, the figures for `COc1cc(O)c2c(=O)cc(CC(O)CCCCCCC(=O)O)oc2c1` (centres unmarked) [Compound 7, Penithochromone S] were 23.6%, 25.2% and 917 ± 8 µM. Taken in the same sequence, the figures for `COc1cc(O)c2c(=O)cc(CC(O)CCCC/C=C/C(=O)O)oc2c1` (centres unmarked) [Compound 8, Penithochromone T] were 19.3%, 41.7% and 1020 ± 22 µM. Taken in the same sequence, the figures for `COc1cc(O)c2c(=O)cc(CCCCCCC(=O)O)oc2c1` [Compound 9, penithochromone C] were 18.1%, 40.2% and 688 ± 24 µM.

Take `O=C(O)CCCCCCc1cc(=O)c2c(O)cc(O)cc2o1` [Compound 10, penithochromone A]: the “Antioxidant % Inhibition (1000 μM)” value in data set [2] stood at 21.8%. Moreover, in data set [1], the inhibition at 667 µM came to 74.7% and the IC50 was found to be 268 ± 25 µM. Turning to `O=C1O[C@H]([C@@H](O)CO)C(O)=C1O` [Vitamin C, vitamin C, reference compound], in data set [2], the IC50 was 26.7 µM and the “Antioxidant % Inhibition (1000 μM)” value is listed as 96.4%.

For `COC(=O)[C@H](O)C[C@](O)(C(=O)OC)[C@@H]1Cc2c(oc3cc(C)cc(O)c3c2=O)S1` [oxalicumone A, oxalicumones A], the IC50 in data set [3] is less than 10 µM. With `COC(=O)[C@H](O)C[C@](O)(C(=O)OC)[C@H]1Cc2c(oc3cc(C)cc(O)c3c2=O)S1` [oxalicumone B, oxalicumones B], the IC50 in data set [3] is less than 10 µM. Regarding `COC(=O)C(O)(C[C@@H](O)C(=O)O)[C@@H]1Cc2c(oc3cc(C)cc(O)c3c2=O)S1` (some centres unmarked) [oxalicumone D, oxalicumones D], in data set [3], the IC50 is less than 10 µM. Take `COC(=O)CC(O)(C(=O)OC)[C@@H]1Cc2c(oc3cc(C)cc(O)c3c2=O)S1` (some centres unmarked) [oxalicumone E, oxalicumones E]: in data set [3], the concentration for half-maximal inhibition (IC50) is less than 10 µM. As for Pestalotiochromone A, the Kd at liver X receptor α is 6.2 µM.

One may read the inhibition as the drop in the measured response relative to a control, in per cent. The IC50 is the concentration that gives 50% inhibition.
